A word on the Kd: it is the constant that tells how readily two partners part at equilibrium. Read a high Kd as a looser complex.

This experiment deals with T1, AfiL.
T1 construct: native, purified from sponge tissue (ammonium sulfate, Sepharose 4B, lactose elution); 70 kDa disulfide-linked dimer, ~30 kDa subunits; internal stretch […]
Nature of the experiment: isothermal titration calorimetry. The format is binding, Aplysina fistularis. The conditions noted are these: TBS (20 mM Tris-HCl pH 7.6, 150 mM NaCl), 25 °C; one-set-of-sites model. (ITC needs no label: the signal is the heat of the interaction.)

Consider `OC[C@H]1O[C@@H](O[C@H]2[C@H](O)[C@@H](O)C(O)O[C@@H]2CO)[C@H](O)[C@@H](O)[C@H]1O` (stereo partly drawn) [D-lactose], for which the dissociation constant Kd worked out at 10.2 µM. That is a double-digit micromolar value.

The values are drawn from paper PMC12195231, “Afil, a Lectin from Aplysina fistularis, Exhibits Antibiofilm and Synergistic Antibacterial Activity Against Resistant Bacteria” (Microorganisms, 2025).
